Data set [1] deals with KP-L-RY leukemia cell line. The data set is described as follows: MTT viability assay. It is filed as cell-based. The following applies: 72 h, differing concentrations. The procedure:
All cell lines were maintained in RPMI 1640+10% FCS. 100 μl aliquots of cell suspension (5×10^5 cells/ml) were cultured in flat-bottomed 96 well plates in the presence of different concentrations of peptides. After 72 h incubation at 37° C. in humidified air containing 5% CO2, viable cell number was determined by MTT assay as follows: 10 μl of 3-[4,5-dimethylthiazol-2-yl]-2,5-diphenyl tetrazolium bromide (MTT) (5 mg/ml concentration) (Sigma) was added to each well and incubated further for 6 h. Formazan crystals that are formed during incubation were dissolved in 100 μl of acidified isopropanol. The optical density at 550 nm (which is linearly related to the number of viable cells) was measured using a plate spectrophotometer. Growth characteristics of the leukemia cell lines were also determined for cells by Trypan Blue exclusion.
In general terms: Tetrazolium assays rely on reduction of a dye to a coloured formazan, in cell work by metabolically active cells.

The target of data set [2] is T1, AF4-AF9 interaction (Homo sapiens, UniProt P42568).
T1 construct: made in house; host or cells: GST-AF4 from E. coli; AF9 by coupled in vitro transcription/translation (Promega)
T1 sequence (P42568 211-568): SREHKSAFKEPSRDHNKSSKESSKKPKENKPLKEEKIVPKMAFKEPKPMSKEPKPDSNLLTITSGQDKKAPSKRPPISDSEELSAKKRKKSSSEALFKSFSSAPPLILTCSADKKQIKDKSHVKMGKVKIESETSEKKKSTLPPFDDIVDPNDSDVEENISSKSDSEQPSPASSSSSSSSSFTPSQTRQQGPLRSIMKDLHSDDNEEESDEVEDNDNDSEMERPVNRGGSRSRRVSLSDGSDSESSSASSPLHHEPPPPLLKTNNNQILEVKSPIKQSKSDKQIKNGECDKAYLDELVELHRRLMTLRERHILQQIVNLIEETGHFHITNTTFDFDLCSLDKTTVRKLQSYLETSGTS
The data set is described as follows: Enzyme-linked protein binding assay, GST-AF4(749-775) and biotinylated AF9.

A short description of a further data set: Solubility. The format is physicochemical. The method, then: PFWT and PFmut are soluble in phosphate buffered saline (PBS) at a concentration of 1 mg/ml and in dimethylsulfoxide (DMSO) at >50 mg/ml (data not shown). In the initial experiments, peptides were dissolved in PBS but were dissolved in DMSO for the majority of the subsequent experiments.
Data set [3] concerns hematopoietic progenitor cells (peripheral blood stem cells). The data set is described as follows: Methylcellulose clonogenic assay. It is filed as cell-based, human. To be noted: 100 μg/ml, 72 h incubation; FIG. 4A. An excerpt: PFWT is toxic to several leukemia cell lines raising the possibility that normal hematopoietic cells are also sensitive to the peptide. To verify whether PFWT has any effect on hematopoietic stem cells, standard methylcellulose-based assays were employed to enumerate the colony-forming potential of human peripheral blood and bone marrow stem cells.
Cryopreserved bone marrow and peripheral blood hematopoietic progenitor cells from healthy donors were thawed and diluted with M199 media (Invitrogen) to give a final DMSO concentration of 0.1%. Cells were incubated at room temperature for 2 h for equilibration. Nucleated cells at a concentration of 5×10^5 cells/ml were then incubated with the peptides PFWT or PFmut or DMSO control vehicle for 48 or 72 h. After the incubation period, 400 μl of the cell suspensions were suspended in 3.6 ml MethoCult GF H4434 methylcellulose media containing cytokines (erythropoietin, G-CSF, GM-CSF, stem cell factor, IL-3 and IL-6) (Stem Cell Technologies) and transferred to 25 mm plates with grids. The cells were plated in triplicate and incubated for 2 weeks at 37° C. with 5% CO2 in a humidified incubator. After 2 weeks, the number of colonies (>50 cells) per plate was counted under an inverted light microscope as a measure of progenitor cell viability.

Data set [4] deals with T1, AF4-AF9 interaction. The data set is described as follows: Enzyme-linked protein binding assay, GST-AF4(749-775) and biotinylated AF9. To be noted: peptide 20 μg/ml; FIG. 2A. The method, then:
Next, an enzyme-linked protein binding assay was developed as a potential high throughput tool to semi-quantitatively assess the ability of various compounds to disrupt the AF4-AF9 interaction in vitro (FIGS. 2A and 2B).
GST-AF4 (749–775) SEQ ID NO: 107 was bound to glutathione-coated 96-well plates and incubated with biotinylated AF9 in conjunction with 20 μg/ml of the following peptides: • (a) Pen-[…], a fusion protein of PENETRATIN™ transporter peptide to the amino terminus of […](SEQ ID NO: 110, PFmut), • (b) Pen-[…], a fusion protein of the transporter protein PENETRATIN™ to the amino terminus of […](SEQ ID NO: 2; or PFWT), • (c) […] or […](SEQ ID NO: 111); • (d) […] or […] (SEQ ID NO: 112); • (e) […] or […](SEQ ID NO: 113), or with • (f) DMSO, or • (g) GST-Cx, a control.
The plate was washed and the retention of AF9 was determined by a colorimetric assay using streptavidin-alkaline phosphatase and pNPP as a substrate. […] At this same peptide concentration, PFmut (a) in col. […] The 10 amino acid peptide (d) in col. 6 is the smallest molecule found to have activity in vitro.

Another data set concerns NIH 373 cell line. The data set is described as follows: Proliferation test. It is filed as cell-based. To be noted: data not shown.
The mark [5] stands for this setting: dimethylsulfoxide (DMSO), read-out: solubility in dimethylsulfoxide (DMSO).
The mark [6] stands for this setting: phosphate buffered saline (PBS), read-out: solubility in phosphate buffered saline (PBS).

The structures appear in SMILES notation. Converted amounts (≈) assume the structure as drawn. “Also recorded” adds a separate entry of the source. Read-outs that look alike come from different tables or passages of the source.

In general, solubility refers to how much of the substance goes into solution per volume. As to `CC[C@H](C)[C@H](NC(=O)[C@H](CCC(N)=O)NC(=O)[C@@H](N)CCCNC(=N)N)C(=O)N[C@@H](CCCCN)C(=O)N[C@@H](Cc1c[nH]c2ccccc12)C(=O)N[C@@H](Cc1ccccc1)C(=O)N[C@@H](CCC(N)=O)C(=O)N[C@@H](CC(N)=O)C(=O)N[C@@H](CCCNC(=N)N)C(=O)N[C@@H](CCCNC(=N)N)C(=O)N[C@@H](CCSC)C(=O)N[C@@H](CCCCN)C(=O)N[C@@H](Cc1c[nH]c2ccccc12)C(=O)N[C@@H](CCCCN)C(=O)N[C@@H](CCCCN)C(=O)N[C@@H](CC(C)C)C(=O)N[C@@H](Cc1c[nH]c2ccccc12)C(=O)N[C@@H](CCC(=O)O)C(=O)N[C@@H](CCCCN)C(=O)N[C@@H](CO)C(=O)N[C@@H](CC(=O)O)C(=O)N[C@@H](CC(C)C)C(=O)N[C@@H](CC(=O)O)C(=O)N[C@@H](CC(C)C)C(=O)N[C@@H](CC(C)C)C(=O)N[C@@H](CO)C(=O)N[C@@H](CCCNC(=N)N)C(=O)N[C@H](C(=O)N1CCC[C@H]1C(=O)O)C(C)C` [PFmut], in data set [1], the cell viability entry is “much less sensitive”. In addition, at AF4-AF9 interaction [2], the “concentration at which activity plateaus” value was 40 µg/mL. The solubility was greater than 50000 µg/mL in “Solubility” (setting [5]) and 1000 µg/mL (≈ 264 µM) in the data set “Solubility” (setting [6]). In addition, the “colony forming potential (colonies >50 cells after 14 days)” value in data set [3] is given as “neither PFWT nor PFmut have any significant effect”. Moreover, on AF4-AF9 interaction [4], the “AF9 binding to GST-AF4 (retention of AF9)” value is on record as “interferes with AF9 binding, but a significant amount of AF9 remains bound in the well”.

Turning to `CC[C@H](C)[C@H](NC(=O)[C@H](CCCCN)NC(=O)[C@@H](NC(=O)[C@H](Cc1c[nH]c2ccccc12)NC(=O)[C@H](CC(C)C)NC(=O)[C@H](CCCCN)NC(=O)[C@H](CCCCN)NC(=O)[C@H](Cc1c[nH]c2ccccc12)NC(=O)[C@H](CCCCN)NC(=O)[C@H](CCSC)NC(=O)[C@H](CCCNC(=N)N)NC(=O)[C@H](CCCNC(=N)N)NC(=O)[C@H](CC(N)=O)NC(=O)[C@H](CCC(N)=O)NC(=O)[C@H](Cc1ccccc1)NC(=O)[C@H](Cc1c[nH]c2ccccc12)NC(=O)[C@H](CCCCN)NC(=O)[C@@H](NC(=O)[C@H](CCC(N)=O)NC(=O)[C@@H](N)CCCNC(=N)N)[C@@H](C)CC)C(C)C)C(=O)N[C@@H](CC(=O)O)C(=O)N[C@@H](CC(C)C)C(=O)N[C@@H](CC(=O)O)C(=O)N[C@@H](CC(C)C)C(=O)N[C@@H](CC(C)C)C(=O)N[C@@H](CO)C(=O)N[C@@H](CCCNC(=N)N)C(=O)N[C@H](C(=O)N1CCC[C@H]1C(=O)O)C(C)C` [PFWT], the proliferation result in the data set on NIH 373 cell line is “not affect the proliferation”. The cell viability entry in data set [1] is “diminished; also recorded: inhibits”. Moreover, the AF4-AF9 interaction entry at AF4-AF9 interaction [2] (10 μg/ml, FIG. 2B) is given as “abolished”. Moreover, on AF4-AF9 interaction [2] (FIG. 2B), the “concentration dependence of AF4-AF9 interaction” value is “dose dependent reduction; also recorded: displaces AF9 from AF4 in a concentration-dependant fashion” and the “lowest concentration showing activity” value came to 10 ng/mL. The solubility in the data set “Solubility” (setting [5]) was greater than 50000 µg/mL. Moreover, in “Solubility” (setting [6]), the solubility was 1000 µg/mL (≈ 264 µM). Besides, the “colony forming potential (colonies >50 cells after 14 days)” value in data set [3] is “neither PFWT nor PFmut have any significant effect; also recorded: does not impair their colony forming potential”. Also, at AF4-AF9 interaction [4], the “AF9 binding to GST-AF4 (retention of AF9)” value is “almost completely block AF9 binding”.

These data come from patent US7189691B2, “Methods and compositions for treating leukemia” (The Administrators of the Tulane Educational Fund, priority 2004, dated 2007).
